Measurements: ChEMBL document CHEMBL5038675, “Selective A3 Adenosine Receptor Antagonist Radioligand for Human and Rodent Species” (ACS Med Chem Lett, 2022)

Assays:
[1] = biological target: Adenosine receptor A2a (Mus musculus) (UniProt Q60613); assay: Displacement of [3H] ZM241385 from mouse adenosine A2A receptor expressed in HEK293 cells at 10 uM incubated for 60 mins by radioligand binding assay; type: cell-based
[2] = biological target: Adenosine receptor A2a (Rattus norvegicus) (UniProt P30543); assay: Displacement of [3H] ZM241385 from rat adenosine A2A receptor expressed in HEK293 cells at 10 uM incubated for 60 mins by radioligand binding assay; type: cell-based
[3] = biological target: Adenosine receptor A2b (Mus musculus) (UniProt Q60614); assay: Displacement of [3H] DPCPX from mouse adenosine A2B receptor expressed in HEK293 cells at 10 uM incubated for 60 mins by radioligand binding assay; type: cell-based
Adenosine receptor A2a [4] = biological target: T1, Adenosine receptor A2a (Homo sapiens, UniProt P29274); assay: Displacement of [3H] ZM241385 from human adenosine A2A receptor expressed in HEK293 cells at 10 uM incubated for 60 mins by radioligand binding assay; type: cell-based
[5] = biological target: T2, Adenosine receptor A1 (Homo sapiens) (UniProt P30542); assay: Displacement of [3H] DPCPX from human adenosine A1 receptor expressed in HEK293 cells at 10 uM incubated for 60 mins by radioligand binding assay; type: cell-based
T2 sequence (whole entry): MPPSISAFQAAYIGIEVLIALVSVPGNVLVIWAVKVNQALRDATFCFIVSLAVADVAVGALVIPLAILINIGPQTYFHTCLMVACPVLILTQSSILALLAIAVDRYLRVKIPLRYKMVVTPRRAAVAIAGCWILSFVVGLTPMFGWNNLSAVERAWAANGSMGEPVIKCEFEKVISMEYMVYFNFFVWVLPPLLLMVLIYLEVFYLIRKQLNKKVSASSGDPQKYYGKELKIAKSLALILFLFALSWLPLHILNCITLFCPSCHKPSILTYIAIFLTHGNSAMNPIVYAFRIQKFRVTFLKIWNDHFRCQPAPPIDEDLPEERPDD

[6] = biological target: Adenosine receptor A2b (Homo sapiens) (UniProt P29275); assay: Displacement of [3H] DPCPX from human adenosine A2B receptor expressed in HEK293 cells at 10 uM incubated for 60 mins by radioligand binding assay; type: cell-based
[7] = biological target: Adenosine receptor A2b (Rattus norvegicus) (UniProt P29276); assay: Displacement of [3H] DPCPX from rat adenosine A2B receptor expressed in HEK293 cells at 10 uM incubated for 60 mins by radioligand binding assay; type: cell-based
Adenosine receptor A3 [8] = biological target: T3, Adenosine receptor A3 (Rattus norvegicus, UniProt P28647); type: cell-based, HEK293
T3 sequence (P28647 whole entry): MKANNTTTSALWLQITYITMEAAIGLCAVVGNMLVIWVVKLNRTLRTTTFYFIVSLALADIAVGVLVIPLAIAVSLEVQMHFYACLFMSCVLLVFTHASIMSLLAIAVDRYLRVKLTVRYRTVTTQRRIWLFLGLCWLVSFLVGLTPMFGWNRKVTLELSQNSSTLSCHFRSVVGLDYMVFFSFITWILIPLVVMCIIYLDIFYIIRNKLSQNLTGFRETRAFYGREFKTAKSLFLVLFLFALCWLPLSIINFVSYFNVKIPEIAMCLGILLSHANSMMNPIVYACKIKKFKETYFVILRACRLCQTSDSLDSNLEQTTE

Adenosine receptor A3 [9] = biological target: T4, Adenosine receptor A3 (Mus musculus, UniProt Q61618); type: cell-based, HEK293
T4 sequence (Q61618 whole entry): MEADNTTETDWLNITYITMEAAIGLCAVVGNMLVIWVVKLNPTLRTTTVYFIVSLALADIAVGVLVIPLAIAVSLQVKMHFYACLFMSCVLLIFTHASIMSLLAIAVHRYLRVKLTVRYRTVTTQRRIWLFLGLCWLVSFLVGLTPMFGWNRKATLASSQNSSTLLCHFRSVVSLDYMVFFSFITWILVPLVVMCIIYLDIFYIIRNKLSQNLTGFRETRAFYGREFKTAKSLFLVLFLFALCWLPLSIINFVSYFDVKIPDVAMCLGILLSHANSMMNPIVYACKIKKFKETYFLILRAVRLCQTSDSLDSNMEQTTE

[10] = biological target: Adenosine receptor A1 (Rattus norvegicus) (UniProt P25099); assay: Displacement of [3H] DPCPX from rat adenosine A1 receptor expressed in HEK293 cells at 10 uM incubated for 60 mins by radioligand binding assay; type: cell-based
[11] = biological target: Adenosine receptor A1 (Mus musculus) (UniProt Q60612); assay: Displacement of [3H] DPCPX from mouse adenosine A1 receptor expressed in HEK293 cells at 10 uM incubated for 60 mins by radioligand binding assay; type: cell-based
Adenosine receptor A3 [12] = biological target: T5, Adenosine receptor A3 (Homo sapiens, UniProt P0DMS8); type: cell-based, HEK293
T5 sequence (P0DMS8 whole entry): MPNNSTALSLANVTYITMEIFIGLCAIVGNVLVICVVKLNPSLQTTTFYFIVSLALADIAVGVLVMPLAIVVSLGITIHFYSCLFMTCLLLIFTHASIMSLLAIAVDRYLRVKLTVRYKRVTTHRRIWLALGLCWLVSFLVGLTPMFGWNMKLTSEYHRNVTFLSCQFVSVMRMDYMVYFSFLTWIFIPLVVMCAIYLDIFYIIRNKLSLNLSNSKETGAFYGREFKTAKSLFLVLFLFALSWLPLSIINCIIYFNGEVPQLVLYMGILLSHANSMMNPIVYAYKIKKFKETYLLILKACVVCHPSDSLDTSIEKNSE

Adenosine receptor A1 [13] = biological target: T6, Adenosine receptor A1 (Homo sapiens, UniProt P30542); assay: Displacement of [3H] DPCPX from human adenosine A1 receptor expressed in HEK293 cells incubated for 60 mins by radioligand binding assay; type: cell-based
T6 sequence (P30542 whole entry): T2 sequence (whole entry)

Adenosine receptor A3 [14] = biological target: T4, Adenosine receptor A3; assay: Binding affinity to mouse adenosine A3 receptor measured by radioligand binding assay
Adenosine receptor A3 [15] = biological target: T3, Adenosine receptor A3; assay: Binding affinity to rat adenosine A3 receptor measured by radioligand binding assay
Adenosine receptor A2a [16] = biological target: T1, Adenosine receptor A2a; assay: Displacement of [3H] ZM241385 from human adenosine A2A receptor expressed in HEK293 cells incubated for 60 mins by radioligand binding assay; type: cell-based
Adenosine receptor A1 [17] = biological target: T7, Adenosine receptor A1 (Mus musculus, UniProt Q60612); assay: Displacement of [3H] DPCPX from mouse adenosine A1 receptor expressed in HEK293 cells incubated for 60 mins by radioligand binding assay; type: cell-based
T7 sequence (Q60612 whole entry): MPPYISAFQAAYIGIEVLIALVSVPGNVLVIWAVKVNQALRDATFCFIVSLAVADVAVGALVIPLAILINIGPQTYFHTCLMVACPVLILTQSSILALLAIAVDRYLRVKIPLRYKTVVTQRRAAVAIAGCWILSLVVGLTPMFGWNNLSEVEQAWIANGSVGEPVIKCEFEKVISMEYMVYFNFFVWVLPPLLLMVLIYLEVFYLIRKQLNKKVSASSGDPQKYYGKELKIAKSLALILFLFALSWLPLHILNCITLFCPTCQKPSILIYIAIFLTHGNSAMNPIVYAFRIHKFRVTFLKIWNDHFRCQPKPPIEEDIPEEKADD

[18] = biological target: Sigma intracellular receptor 2 (Homo sapiens, UniProt Q5BJF2); assay: Binding affinity to human sigma2 receptor by radioligand binding assay
Translocator protein = Translocator protein (Homo sapiens, UniProt P30536); assay: Binding affinity to human TSPO receptor by radioligand binding assay
D(3) dopamine receptor = D(3) dopamine receptor (Homo sapiens, UniProt P35462); assay: Binding affinity to human D3 receptor by radioligand binding assay
D(4) dopamine receptor = D(4) dopamine receptor (Homo sapiens, UniProt P21917); assay: Binding affinity to human D4 receptor by radioligand binding assay
D(4) dopamine receptor, sequence (P21917 whole entry): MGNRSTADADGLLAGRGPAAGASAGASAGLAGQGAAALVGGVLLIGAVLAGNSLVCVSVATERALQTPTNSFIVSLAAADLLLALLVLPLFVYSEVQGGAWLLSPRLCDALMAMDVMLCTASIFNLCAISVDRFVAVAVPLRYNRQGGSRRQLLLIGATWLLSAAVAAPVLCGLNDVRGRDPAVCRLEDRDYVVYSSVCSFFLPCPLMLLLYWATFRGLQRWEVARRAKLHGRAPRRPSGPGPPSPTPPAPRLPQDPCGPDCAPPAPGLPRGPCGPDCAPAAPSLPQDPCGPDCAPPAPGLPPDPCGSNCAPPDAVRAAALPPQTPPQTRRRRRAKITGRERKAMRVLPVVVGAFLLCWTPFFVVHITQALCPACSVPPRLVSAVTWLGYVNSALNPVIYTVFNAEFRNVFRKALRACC

T1 sequence (P29274 whole entry): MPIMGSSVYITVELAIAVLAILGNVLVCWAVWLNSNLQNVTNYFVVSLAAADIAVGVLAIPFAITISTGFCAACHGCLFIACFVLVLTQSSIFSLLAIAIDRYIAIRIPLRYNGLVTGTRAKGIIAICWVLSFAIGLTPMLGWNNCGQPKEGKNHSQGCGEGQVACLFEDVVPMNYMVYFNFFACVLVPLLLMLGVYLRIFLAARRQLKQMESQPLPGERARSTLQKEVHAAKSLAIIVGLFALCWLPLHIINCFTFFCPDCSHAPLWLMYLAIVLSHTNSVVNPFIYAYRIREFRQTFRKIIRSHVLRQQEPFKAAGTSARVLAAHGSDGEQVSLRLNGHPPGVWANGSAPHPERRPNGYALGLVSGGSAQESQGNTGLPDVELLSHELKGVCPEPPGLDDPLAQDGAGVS
Adenosine receptor A2a (Mus musculus), sequence (Q60613 whole entry): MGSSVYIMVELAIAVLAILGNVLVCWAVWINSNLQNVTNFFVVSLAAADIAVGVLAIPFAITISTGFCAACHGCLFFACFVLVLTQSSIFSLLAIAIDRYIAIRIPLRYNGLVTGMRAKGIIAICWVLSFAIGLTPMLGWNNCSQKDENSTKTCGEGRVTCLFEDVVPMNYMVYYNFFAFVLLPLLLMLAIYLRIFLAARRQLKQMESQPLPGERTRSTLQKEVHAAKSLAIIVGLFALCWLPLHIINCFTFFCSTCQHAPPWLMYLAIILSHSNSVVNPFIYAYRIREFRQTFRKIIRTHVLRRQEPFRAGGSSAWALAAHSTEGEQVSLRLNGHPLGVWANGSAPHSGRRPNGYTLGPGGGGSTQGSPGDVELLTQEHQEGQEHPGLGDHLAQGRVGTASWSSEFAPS
Adenosine receptor A2a (Rattus norvegicus), sequence (P30543 whole entry): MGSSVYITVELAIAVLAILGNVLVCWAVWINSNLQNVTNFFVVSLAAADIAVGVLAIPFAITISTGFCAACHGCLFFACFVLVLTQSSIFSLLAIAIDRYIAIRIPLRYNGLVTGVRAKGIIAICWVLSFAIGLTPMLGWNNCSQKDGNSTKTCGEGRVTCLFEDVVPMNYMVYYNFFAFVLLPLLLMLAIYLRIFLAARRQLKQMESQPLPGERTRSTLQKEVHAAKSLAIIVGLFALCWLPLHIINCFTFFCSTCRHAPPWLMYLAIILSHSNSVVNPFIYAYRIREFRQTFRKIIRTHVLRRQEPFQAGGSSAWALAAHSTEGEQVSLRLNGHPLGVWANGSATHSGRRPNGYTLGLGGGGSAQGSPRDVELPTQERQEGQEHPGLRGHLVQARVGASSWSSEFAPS
Adenosine receptor A2b (Homo sapiens), sequence (P29275 whole entry): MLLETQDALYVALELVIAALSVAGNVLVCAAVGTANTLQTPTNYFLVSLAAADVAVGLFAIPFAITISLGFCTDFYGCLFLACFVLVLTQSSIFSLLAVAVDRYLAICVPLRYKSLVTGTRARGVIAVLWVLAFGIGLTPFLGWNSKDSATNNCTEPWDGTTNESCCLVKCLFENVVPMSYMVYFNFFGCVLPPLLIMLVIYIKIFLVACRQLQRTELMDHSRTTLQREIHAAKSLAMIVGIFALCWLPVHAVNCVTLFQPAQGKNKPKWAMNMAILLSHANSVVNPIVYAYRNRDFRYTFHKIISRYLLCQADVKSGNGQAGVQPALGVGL
Adenosine receptor A2b (Rattus norvegicus), sequence (P29276 whole entry): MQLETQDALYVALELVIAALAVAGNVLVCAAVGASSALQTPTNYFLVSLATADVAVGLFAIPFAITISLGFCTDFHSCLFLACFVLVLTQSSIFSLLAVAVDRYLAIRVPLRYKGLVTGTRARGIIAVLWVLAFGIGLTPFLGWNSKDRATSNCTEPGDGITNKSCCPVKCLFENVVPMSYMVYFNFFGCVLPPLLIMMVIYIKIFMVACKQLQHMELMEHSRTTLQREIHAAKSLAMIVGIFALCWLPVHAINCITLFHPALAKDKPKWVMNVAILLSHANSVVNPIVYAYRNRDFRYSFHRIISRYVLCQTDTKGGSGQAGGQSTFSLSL
Translocator protein, sequence (P30536 whole entry): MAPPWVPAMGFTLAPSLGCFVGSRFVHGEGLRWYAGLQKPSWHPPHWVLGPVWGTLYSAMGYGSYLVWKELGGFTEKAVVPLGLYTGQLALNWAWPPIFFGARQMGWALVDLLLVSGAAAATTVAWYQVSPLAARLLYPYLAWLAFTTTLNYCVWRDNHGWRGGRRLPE
Sigma intracellular receptor 2, sequence (Q5BJF2 whole entry): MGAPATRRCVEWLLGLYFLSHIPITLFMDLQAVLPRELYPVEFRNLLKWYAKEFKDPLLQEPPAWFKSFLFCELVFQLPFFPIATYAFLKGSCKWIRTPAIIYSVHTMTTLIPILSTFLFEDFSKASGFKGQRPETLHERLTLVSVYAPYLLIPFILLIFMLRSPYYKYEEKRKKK
Adenosine receptor A1 (Rattus norvegicus), sequence (P25099 whole entry): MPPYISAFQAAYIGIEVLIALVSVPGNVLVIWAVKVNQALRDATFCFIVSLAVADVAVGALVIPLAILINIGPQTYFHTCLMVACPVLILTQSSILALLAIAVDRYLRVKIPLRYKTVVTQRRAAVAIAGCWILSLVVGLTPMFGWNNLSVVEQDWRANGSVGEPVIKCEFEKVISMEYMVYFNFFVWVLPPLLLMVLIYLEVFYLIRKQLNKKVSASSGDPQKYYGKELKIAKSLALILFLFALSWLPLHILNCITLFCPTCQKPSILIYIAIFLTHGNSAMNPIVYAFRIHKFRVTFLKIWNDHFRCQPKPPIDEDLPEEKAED
D(3) dopamine receptor, sequence (P35462 whole entry): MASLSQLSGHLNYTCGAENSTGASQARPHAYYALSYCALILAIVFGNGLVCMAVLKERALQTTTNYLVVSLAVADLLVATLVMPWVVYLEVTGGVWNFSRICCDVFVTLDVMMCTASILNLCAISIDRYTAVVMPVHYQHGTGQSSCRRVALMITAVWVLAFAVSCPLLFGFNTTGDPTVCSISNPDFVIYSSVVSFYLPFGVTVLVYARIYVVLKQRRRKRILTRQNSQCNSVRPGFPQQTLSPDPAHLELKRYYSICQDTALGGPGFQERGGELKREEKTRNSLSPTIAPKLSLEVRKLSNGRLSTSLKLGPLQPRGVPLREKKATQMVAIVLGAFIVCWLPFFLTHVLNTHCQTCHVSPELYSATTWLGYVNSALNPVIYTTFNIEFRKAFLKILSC
Adenosine receptor A2b (Mus musculus), sequence (Q60614 whole entry): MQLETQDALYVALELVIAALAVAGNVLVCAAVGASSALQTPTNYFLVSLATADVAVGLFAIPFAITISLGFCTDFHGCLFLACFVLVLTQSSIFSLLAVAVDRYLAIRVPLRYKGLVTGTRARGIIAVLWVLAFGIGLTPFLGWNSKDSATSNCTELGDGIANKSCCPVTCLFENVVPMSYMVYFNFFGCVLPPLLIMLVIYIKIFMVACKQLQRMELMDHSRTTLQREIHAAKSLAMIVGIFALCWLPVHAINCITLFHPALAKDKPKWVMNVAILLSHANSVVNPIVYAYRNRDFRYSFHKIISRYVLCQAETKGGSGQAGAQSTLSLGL

Structure (SMILES)	inhibition [1] [%]	inhibition (Adenosine receptor A2a [4]) [%]	Ki (Adenosine receptor A3 [9]) [nM]	Ki (Adenosine receptor A3 [12]) [nM]	Ki (Adenosine receptor A1 [13]) [nM]	Ki (Adenosine receptor A1 [17]) [nM]	also measured
CCCOC(=O)c1c(-c2ccccc2)nc(CC)c(C(=O)SCC)c1CCC	25.1	16.4	349	43.9	–	–	inhibition [2]: 7.4%; inhibition [3]: 20.2%; inhibition [5]: 35.4%; inhibition [6]: 34.5%; inhibition [7]: 38.8%; Ki (Adenosine receptor A3 [8]): 216 nM; inhibition [10]: 25.5%; inhibition [11]: 27.4%
COC(=O)/C=C/c1cc(C)cc(-c2nc(NC(=O)c3cccnc3)sc2-c2ccncc2)c1	–	15	120	18.9	1570	–	–
CC[C@@H]1CN2C(=O)N(C)c3nc(-c4ccccc4)[nH]c3C2=N1	–	–	–	–	–	–	Ki (Adenosine receptor A3 [14]): 6360 nM; Ki (Adenosine receptor A3 [15]): > 10000 nM
Cc1cc(F)cc(-c2nc(NC(=O)c3cccnc3)sc2-c2ccncc2)c1	–	–	–	69.2	78.7	–	Ki (Adenosine receptor A2a [16]): 3550 nM
Cc1cc(I)cc(-c2nc(NC(=O)c3cccnc3)sc2-c2ccncc2)c1	7.4	–	12.4	6.12	8770	2640	Ki [18]: 3690 nM; Ki (Translocator protein): 1330 nM; Ki (D(3) dopamine receptor): 340 nM; Ki (D(4) dopamine receptor): 1240 nM
Cc1cc(Br)cc(-c2nc(NC(=O)c3cccnc3)sc2-c2ccncc2)c1	29	-7.3	22.3	6.34	1450	252	–
